Test results as given in article PMC5855594, “Poly-N-Acetyllactosamine Neo-Glycoproteins as Nanomolar Ligands of Human Galectin-3: Binding Kinetics and Modeling” (International Journal of Molecular Sciences, 2018).
Read-outs that look alike come from different tables or passages of the source. Each block holds one molecule with its values, some of them ahead of it.

How the values were obtained:
[1] = molecular target: T1, Gal-3-AVI (Homo sapiens, UniProt P17931); assay: Competitive ELISA with Gal-3-AVI construct; format: binding; conditions: read-out: IC50 glycan, competitive ELISA
T1 construct: made in house; host or cells: E. coli BL21 (λDE3), co-expressed with BirA
T1 sequence (P17931 whole entry): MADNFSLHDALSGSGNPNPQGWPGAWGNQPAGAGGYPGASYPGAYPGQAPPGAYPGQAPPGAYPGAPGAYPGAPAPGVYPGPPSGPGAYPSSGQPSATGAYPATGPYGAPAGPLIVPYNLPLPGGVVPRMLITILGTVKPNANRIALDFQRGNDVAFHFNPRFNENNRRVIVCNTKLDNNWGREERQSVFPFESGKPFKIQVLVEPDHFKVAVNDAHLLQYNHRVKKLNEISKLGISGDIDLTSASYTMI

[2] = molecular target: T2, human galectin-3 (Gal-3) (Homo sapiens, UniProt P17931); assay: Competitive ELISA: inhibition of His-tagged Gal-3 binding to immobilized asialofetuin (ASF); conditions: for increase of inhibitory potency compared to lactose (times): competitive ELISA; for IC50: read-out: IC50 Glycan
T2 construct: made in house; host or cells: E. coli Rosetta (DE3) pLysS
T2 sequence (P17931 whole entry): as above
Protocol: To assess the inhibitory potential of glycans 1–8 and the respective neo-glycoproteins 9–16 towards Gal-3, their capacity to inhibit the binding of Gal-3 to immobilized asialofetuin (ASF) was determined by competitive ELISA inhibition analyses (Figure 2b). ASF is a multivalent glycoprotein presenting three triantennary N-glycans terminated with LacNAc, which is reported to interact with Gal-3. Here, Gal-3 was incubated with increasing concentrations of the glycans or neo-glycoproteins as competing ligands and the inhibition of Gal-3 binding to immobilized ASF was quantified by colorimetric immunodetection using anti-His antibody conjugated to HRP. […] The respective inhibition constants (IC50) were calculated from the non-linear regression of the sigmoidal inhibition curves and they are listed in Table 1.
In the competitive ELISA design, the F16 Maxisorp NUNC-Immuno Modules (Thermo Scientific, Roskilde, Denmark) were coated overnight with ASF (Sigma Aldrich, Steinheim, Germany; 0.1 µM in PBS, 50 µL, 5 pmol per well) and blocked with BSA (2% w/v) diluted in PBS (1 h, room temperature). […] Detection of bound Gal-3 and data analysis were performed as described above.

[3] = molecular target: T2, human galectin-3 (Gal-3); conditions: monovalent glycan; inhibition of Gal-3 binding to immobilized ASF; cited from earlier work
[4] = molecular target: T1, Gal-3-AVI; assay: SPR with biotinylated Gal-3-AVI captured on neutravidin chip, neo-glycoproteins as analytes; format: binding
Protocol: For SPR analysis, the biotinylated Gal-3-AVI was captured on a neutravidin-coated sensor chip, and the binding of serially diluted neo-glycoproteins 9–16 to immobilized Gal-3-AVI was analyzed. Three coupling concentrations of Gal-3-AVI were tested, so that the effect of mass transfer and the non-specific binding were minimized. As a result, the coupling level of 250 relative units (RU) along with the flow rate of 30 µL/min gave the optimum conditions and these parameters were used for the subsequent experiments.
Figure 4 SPR kinetic binding analysis of the interactions between neo-glycoproteins 9–16 and immobilized Gal-3-AVI. The neo-glycoproteins at indicated concentrations were injected in parallel over the neutravidin-coated sensor chip coated with the biotinylated Gal-3-AVI at a flow rate of 30 μL/min. The kinetic data were globally fitted by using a 1:1 Langmuir binding model. The fitted curves are superimposed as thin black lines on top of the sensograms. BSA, bovine serum albumin; rel., relative.
SPR measurements were performed at 25 °C using a set of sensor chips (GLC, NLC, HTE) mounted on a ProteOn XPR36 Protein Interaction Array System (Bio-Rad, Hercules, CA, USA ) as described previously. Briefly, Gal-3-AVI protein was diluted to a final concentration of 5 µg·mL^−1 in PBS and captured on a neutravidin-coated NLC sensor chip (Bio-Rad) at a flow rate of 30 µL·min^−1. Neo-glycoproteins 9–16, used here as analytes, were serially diluted in the running buffer (PBS supplemented with 0.005% Tween 20), and injected in parallel over the immobilized Gal-3-AVI at a flow rate of 30 µL·min^−1. The Gal-3-AVI surface was regenerated by a washing step with 50 mM HCl for 60 s. For the reversed experimental setup, the neo-glycoproteins 9–16 were immobilized on the GLC sensor chip by amine coupling chemistry and serial dilutions of Gal-3 were injected over the sensor surface. […] The equilibrium dissociation constant, KD, was determined as a ratio between the dissociation and association rate constants: KD=kd/ka

[5] = molecular target: T1, Gal-3-AVI; assay: Direct ELISA with Gal-3-AVI construct; format: binding; conditions: read-out: Kd app, direct ELISA
Source text: To overcome the difficulties with Gal-3 immobilization, we prepared a biotinylated version of Gal-3 through in vivo biotinylation of an AviTag peptide that was genetically fused to the N-terminus of Gal-3 (Gal-3-AVI) (Figure 3). The AviTag is a specific 15-amino acid peptide sequence ([…]) that directs a highly targeted enzymatic conjugation of a single biotin molecule to the specific lysine (K) residue within the AviTag sequence using biotin ligase (BirA). In contrast to chemical biotinylation, which usually generates heterogeneous products with impaired function, the co-translational biotinylation of the AviTag peptide is site specific and provides a highly homogeneous protein preparation. Moreover, the N-terminal localization of the AviTag peptide provides a favorable orientation of Gal-3-AVI on a streptavidin-coated surface, leaving the C-terminal carbohydrate-binding domain of Gal-3 freely accessible for binding interactions.
Table S1. Comparison of binding affinities of His6-tag Gal-3 and Gal-3-AVI in ELISA assays Kd app [µM], direct ELISA IC50 glycan [µM], competitive ELISA […]
Figure S7. SPR kinetic binding analysis of the interactions between asialofetuin (ASF) and immobilized Gal-3-AVI. ASF was injected in parallel over the neutravidin-coated sensor chip coated with the biotinylated Gal-3-AVI at a flow rate of 30 µl/min. […]

[6] = molecular target: T2, human galectin-3 (Gal-3); assay: Direct ELISA: binding of soluble His-tagged Gal-3 to immobilized neo-glycoproteins or ASF
Source text: To determine the binding affinities between Gal-3 and neo-glycoproteins 9–16, the binding of soluble Gal-3 to the neo-glycoproteins immobilized in microplate wells was quantified by colorimetric immunodetection using anti-His antibody conjugated to horseradish peroxidase (HRP) (Figure 2a). Gal-3 bound neo-glycoproteins in a concentration-dependent manner and the interaction was exclusively conferred by glycan moieties since no binding of Gal-3 to the glycan-free BSA was detected. Apparent dissociation constants (Kd) of the Gal-3/neo-glycoprotein complexes were calculated from a non-linear regression of binding curves.
The affinity of Gal-3 for neo-glycoproteins 9–16 was determined using ELISA as reported previously. For the immobilization of the respective neo-glycoproteins or non-modified BSA (negative control), we used F16 Maxisorp NUNC-Immuno Modules (Thermo Scientific, Roskilde, Denmark). Per well, an amount of 5 pmol was incubated overnight at a working concentration of 0.1 µM (PBS). Then the wells were blocked with bovine serum albumin (2% w/v) diluted in PBS (1 h, room temperature). […] The binding signal of bound galectin was measured with a spectrophotometer (Spectra Max Plus, Molecular Devices, Sunnyvale, CA, USA) at an optical density of 450 nm. Obtained data were analyzed using SigmaPlot 10 software (Systat Software GmbH, Erkrath, Germany).

[7] = immobilized Gal-3-AVI, 1:1 Langmuir model, 25 °C

IC50 [1]: 43 ± 4 µM
increase of inhibitory potency compared to lactose (times) [2]: up to 4
IC50 [2]: 42 ± 2 µM
Molecule: CC(=O)N[C@@H]1[C@@H](O)[C@H](O[C@@H]2O[C@H](CO)[C@H](O)[C@H](O)[C@H]2NC(C)=O)[C@@H](CO)O[C@H]1NC(=S)NCCNC(=O)OC(C)(C)C [glycan 1, LacdiNAc]

increase of inhibitory potency compared to lactose (times) [2]: up to 4
IC50 [2]: 36 ± 1 µM
Molecule: CC(=O)N[C@@H]1[C@@H](O)[C@H](O[C@@H]2O[C@H](CO)[C@H](O)[C@H](O)[C@H]2O)[C@@H](CO)O[C@H]1NC(=S)NCCNC(=O)OC(C)(C)C [glycan 2]

Molecule: CC(=O)N[C@@H]1[C@@H](O)[C@H](O[C@@H]2O[C@H](CO)[C@H](O)[C@H](O[C@@H]3O[C@H](CO)[C@@H](O[C@@H]4O[C@H](CO)[C@H](O)[C@H](O)[C@H]4NC(C)=O)[C@H](O)[C@H]3NC(C)=O)[C@H]2O)[C@@H](CO)O[C@H]1NC(=S)NCCNC(=O)OC(C)(C)C [glycan 3, LacdiNAc-LacNAc]
IC50 [3]: 7 ± 1 µM

Molecule: CC(=O)N[C@@H]1[C@@H](O)[C@H](O[C@@H]2O[C@H](CO)[C@H](O)[C@H](O[C@@H]3O[C@H](CO)[C@@H](O[C@@H]4O[C@H](CO)[C@H](O)[C@H](O)[C@H]4O)[C@H](O)[C@H]3NC(C)=O)[C@H]2O)[C@@H](CO)O[C@H]1NC(=S)NCCNC(=O)OC(C)(C)C [glycan 4, LacNAc-LacNAc]
IC50 [3]: 13 ± 3 µM

Molecule: CC(=O)N[C@@H]1[C@@H](O)[C@H](O[C@@H]2O[C@H](CO)[C@H](O)[C@H](O[C@@H]3O[C@H](CO)[C@@H](O[C@@H]4O[C@H](CO)[C@H](O)[C@H](O[C@@H]5O[C@H](CO)[C@@H](O[C@@H]6O[C@H](CO)[C@H](O)[C@H](O)[C@H]6NC(C)=O)[C@H](O)[C@H]5NC(C)=O)[C@H]4O)[C@H](O)[C@H]3NC(C)=O)[C@H]2O)[C@@H](CO)O[C@H]1NC(=S)NCCNC(=O)OC(C)(C)C [glycan 5, LacdiNAc-LacNAc-LacNAc]
IC50 [3]: 6.2 ± 0.02 µM

Molecule: CC(=O)N[C@@H]1[C@@H](O)[C@H](O[C@@H]2O[C@H](CO)[C@H](O)[C@H](O[C@@H]3O[C@H](CO)[C@@H](O[C@@H]4O[C@H](CO)[C@H](O)[C@H](O[C@@H]5O[C@H](CO)[C@@H](O[C@@H]6O[C@H](CO)[C@H](O)[C@H](O)[C@H]6O)[C@H](O)[C@H]5NC(C)=O)[C@H]4O)[C@H](O)[C@H]3NC(C)=O)[C@H]2O)[C@@H](CO)O[C@H]1NC(=S)NCCNC(=O)OC(C)(C)C [glycan 6, LacNAc-LacNAc-LacNAc]
IC50 [3]: 20.1 ± 0.1 µM

Molecule: CC(=O)N[C@@H]1[C@@H](O)[C@H](O[C@@H]2O[C@H](CO)[C@H](O)[C@H](O[C@@H]3O[C@H](CO)[C@@H](O[C@@H]4O[C@H](CO)[C@H](O)[C@H](O[C@@H]5O[C@H](CO)[C@@H](O)[C@H](O[C@@H]6O[C@H](CO)[C@H](O)[C@H](O)[C@H]6O)[C@H]5NC(C)=O)[C@H]4O)[C@H](O)[C@H]3NC(C)=O)[C@H]2O)[C@@H](CO)O[C@H]1NC(=S)NCCNC(=O)OC(C)(C)C [glycan 7, LacNAc type 1-LacNAc-LacNAc]
IC50 [3]: 12.5 ± 0.1 µM

Molecule: CC(=O)N[C@@H]1[C@@H](O)[C@H](O[C@@H]2O[C@H](CO)[C@H](O)[C@H](O[C@@H]3O[C@H](CO)[C@@H](O[C@@H]4O[C@H](CO)[C@H](O)[C@H](O[C@@H]5O[C@H](CO)[C@@H](O[C@@H]6O[C@H](CO)[C@H](O)[C@H](O[C@H]7O[C@H](CO)[C@H](O)[C@H](O)[C@H]7O)[C@H]6O)[C@H](O)[C@H]5NC(C)=O)[C@H]4O)[C@H](O)[C@H]3NC(C)=O)[C@H]2O)[C@@H](CO)O[C@H]1NC(=S)NCCNC(=O)OC(C)(C)C [glycan 8, Galili-LacNAc-LacNAc]
IC50 [3]: 8.4 ± 0.1 µM

Molecule: Asialofetuin [ASF]
ka [4, 7]: (4.8 ± 1.9) × 10^4 M^−1·s^−1
kd [4, 7]: (4.0 ± 1.7) × 10^−4 s^−1
Kd [5]: 4.8 ± 0.2 µM
Kd ([6]; His6-tag Gal-3, read-out: Kd app, direct ELISA): 5 ± 1 µM

Molecule: bovine serum albumin [BSA]
SPR response / binding to immobilized Gal-3-AVI ([4]; nanomolar concentrations): no binding
binding of Gal-3 in direct ELISA ([6]; negative control, immobilized): no binding
